From patent US20200338039A1, “METHODS AND MATERIALS FOR ASSESSING BIOLOGICAL AGE AND SLOWING THE PROGRESS OF EXCESSIVE BIOLOGICAL AGING” (The Scripps Research Institute, priority 2017, published 2020)

Assays:
mice, 85 weeks of age = assay: Late-life fisetin diet in aged mice: lifespan, tissue function, histopathology; type: in vivo, mouse; settings: diet containing 500 ppm fisetin from 85 weeks of age
Method: At 85-weeks of age (>20 mth), male and female mice were administered a diet containing 500 ppm (500 mg/kg) fisetin or fed a control diet with no drug. n=8-9 mice per group. In the treatment group, median lifespan was increased 17% and maximum lifespan increased 12%. Log rank (Mantel-Cox) test. […] Levels of MCP-1 were measured in the serum of these mice by ELISA. n=5 mice per group. One-way ANOVA with Tukey's multiple comparison test. Values represented as the mean SEM, ***p<0.001, ****p<0.0001. Therefore, circulating levels of MCP-1 correlate with drug-induced improvements in health and lifespan (FIG. 12).

C57BL/6J mice = assay: Composite lesion scores (geropathology grading, histology) in old mice on rapamycin diet; type: in vivo, mouse; settings: two year-old C57BL/6J mice; rapamycin diet 14 ppm females / 42 ppm males for two months; average
From the text: Two year-old C57BL/6J mice were fed a diet containing rapamycin (14 ppm for females or 42 ppm for males) or a control diet for two months. […] In addition, rapamycin attenuated composite lesion scores in kidneys (FIG. 7), liver, and lungs of these mice by an average of 40, 41, and 29 percent, respectively.
Two year old C57BL/6J mice were obtained from the NIA Rodent Colony and treated with encapsulated rapamycin (Rapamycin Holdings, San Antonio Tex.) at 14 ppm for females and 42 ppm for males, or control (encapsulated only) diet for 8 weeks. Mice were sacrificed at 26 months and serum collected preceding necropsy. Ercc1^−/Δ mice were treated with Dasatinib and Quercetin as described elsewhere (see, e.g., Zhu et al., 2015 Aging cell. 14(4):644-658). Briefly, Ercc1^−/Δ mice were treated weekly with a combination of Dasatinib (5 mg/kg) and Quercetin (50 mg/kg) starting at 4-6 weeks of age. Therapeutics were administered in 10% PEG400 by oral gavage. Litters with multiple Ercc1^−/Δ mice were used to enable comparison of sibling pairs that were treated with therapeutic vs vehicle only. Mice (n=5-6 per group) were sacrificed at 16 weeks and serum collected by cardiac puncture.
Mouse tissues were collected at necropsy and placed in 10% buffered formalin for 48 hours, transferred to 70% alcohol, and subsequently processed into paraffin blocks for sectioning and hematoxylin and eosin staining. Histology slides were validated for age-related lesions by a veterinary pathologist and scored for lesion severity to create a composite lesion score for age-related renal pathology in each animal (see, e.g., Ladiges 2016 Pathobiol Aging Age Relat Dis. 6:31478).

[1] = male and female mice, vs control diet

Row | Structure (SMILES) | age-related histopathology (mice, 85 weeks of age) | tissue function (mice, 85 weeks of age) | increase in maximum lifespan (mice, 85 weeks of age; [1]) | increase in median lifespan (mice, 85 weeks of age; [1]) | attenuation of composite lesion score, kidneys (C57BL/6J mice) | attenuation of composite lesion score, liver (C57BL/6J mice) | attenuation of composite lesion score, lungs (C57BL/6J mice)
1 | O=c1c(O)c(-c2ccc(O)c(O)c2)oc2cc(O)ccc12 [fisetin] | decreased in multiple organs | improved | 12% | 17% | – | – | –
2 | CO[C@H]1C[C@@H]2CC[C@@H](C)[C@@](O)(O2)C(=O)C(=O)N2CCCC[C@H]2C(=O)O[C@H]([C@H](C)C[C@@H]2CC[C@@H](O)[C@H](OC)C2)CC(=O)[C@H](C)/C=C(\C)[C@@H](O)[C@@H](OC)C(=O)[C@H](C)C[C@H](C)/C=C/C=C/C=C/1C [rapamycin] | – | – | – | – | 40% | 41% | 29%
